The record followed here is patent US20150183781A1, “5-(1H-Pyrazol-4-yl)-1H-Pyrrolo[2,3-b]Pyridine Derivatives as Kinase Inhibitors” (AURIGENE DISCOVERY TECHNOLOGIES LIMITED, priority 2012, published 2015).

Structures can show the parent of a compound that is named as a salt. Bounds are passed on as bounds.

For the assay, the target named is T1, recombinant human ALK enzyme (Homo sapiens, UniProt Q9UM73).
T1 construct: purchased Carna Biosciences 08-518
The assay is described as follows: ALK WT cell free assay (TR-FRET). Format: biochemical. The conditions noted are these: 1 μM ATP; for IC50: 10 point dose response, read-out: IC50 value (in range); for inhibition at 1 µM: compound 1 μM, read-out: Percentage Inhibition 1 μM; for inhibition at 1 µM / inhibition at 0.1 µM: 30 min pre-incubation; for inhibition at 0.1 µM: compound 100 nM, read-out: Percentage Inhibition 100 nM. How it is done:
The ALK WT cell free assay was set up to evaluate the effects of these compounds as inhibitors of ALK enzyme. The enzymatic assay was standardized using recombinant human ALK enzyme (Cat#08-518) from Carna Biosciences using Ultra Light Poly GT (Cat# TRF […]) from Perkin Elmer as a substrate. TR-FRET (Time resolved fluorescence resonance energy transfer) detection technology was used for the read out. […] The assay reaction time with the substrate was 30 minutes after which the antibody detection mix is added. The TR-FRET signal (Excitation at 340 nm, Emission at 615 nm and 665 nm) was read with 50 μs delay time on Victor^3 V fluorimeter. The data is calculated using the ratio of reading at 665 nm to 615 nm. […] Compounds were screened at 100 nM and 1 μM concentrations with pre-incubation of the enzymes with compound for 30 minutes.

T1 sequence (Q9UM73 1058-1620 limits assumed): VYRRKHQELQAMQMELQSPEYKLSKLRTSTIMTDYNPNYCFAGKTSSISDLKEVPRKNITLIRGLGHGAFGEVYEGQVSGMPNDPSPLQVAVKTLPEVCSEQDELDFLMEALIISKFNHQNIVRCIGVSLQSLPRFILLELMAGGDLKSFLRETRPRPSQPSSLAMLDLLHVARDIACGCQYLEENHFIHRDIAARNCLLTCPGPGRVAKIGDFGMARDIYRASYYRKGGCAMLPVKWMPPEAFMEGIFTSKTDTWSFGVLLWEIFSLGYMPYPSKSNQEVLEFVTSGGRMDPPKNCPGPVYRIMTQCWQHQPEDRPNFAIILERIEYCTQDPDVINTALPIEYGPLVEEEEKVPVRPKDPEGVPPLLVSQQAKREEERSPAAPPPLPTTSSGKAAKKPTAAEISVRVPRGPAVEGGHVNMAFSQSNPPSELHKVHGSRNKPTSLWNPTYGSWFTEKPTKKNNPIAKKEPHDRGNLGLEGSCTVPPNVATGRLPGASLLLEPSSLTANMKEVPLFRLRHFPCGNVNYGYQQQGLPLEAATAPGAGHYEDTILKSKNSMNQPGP

As usually defined, the IC50 is the concentration that gives 50% inhibition. As a reminder, the inhibition is the share of the control response that was lost under treatment. On to `Cn1cc(-c2cnc3[nH]cc(-c4cnn(Cc5ccccc5F)c4)c3c2)cn1` [Example-1, 3-(1-(2-fluorobenzyl)-1H-pyrazol-4-yl)-5-(1-methyl-1H-pyrazol-4-yl)-1H-pyrrolo[2,3-b]pyridine], for which the IC50 is 50 to 200 nM and the inhibition at 1 µM was determined as 95%.

Turning to `Cn1cc(-c2cnc3[nH]cc(-c4cnn(Cc5cccc(F)c5)c4)c3c2)cn1` [Example-3], the IC50 is less than 50 nM and the inhibition at 1 µM came to 100%.

For `Cn1cc(-c2cnc3[nH]cc(-c4cnn(Cc5ccc(F)cc5)c4)c3c2)cn1` [Example-4], the IC50 fell in the range of 50 to 200 nM and the inhibition at 1 µM was 93%.

As to `Cn1cc(-c2cnc3[nH]cc(-c4cnn(Cc5cccc(C#N)c5)c4)c3c2)cn1` [Example-5], the IC50 was less than 50 nM and the inhibition at 1 µM is 95%.

Turning to `COC(=O)c1cccc(Cn2cc(-c3c[nH]c4ncc(-c5cnn(C)c5)cc34)cn2)c1` [Example-6], the inhibition at 1 µM is 42%.

For `Cc1nn(Cc2cc(Cl)ccc2F)cc1-c1c[nH]c2ncc(-c3cnn(C)c3)cc12` [Example-7], the IC50 was more than 200 nM, the inhibition at 0.1 µM stood at 45% and the inhibition at 1 µM stood at 93%.

For the compound `Cn1cc(-c2cnc3[nH]cc(-c4cnn(Cc5ccccc5)c4)c3c2)cn1` [Example-8], the IC50 was 50 to 200 nM and the inhibition at 1 µM was determined as 98%.

On to `Cn1cc(-c2cnc3[nH]cc(-c4cnn(Cc5ccc(C(C)(C)C)cc5)c4)c3c2)cn1` [Example-9, 3-(1-(4-(tert-butyl)benzyl)-1H-pyrazol-4-yl)-5-(1-methyl-1H-pyrazol-4-yl)-1H-pyrrolo[2,3-b]pyridine], for which the inhibition at 1 µM came out at 21%.

As to `Cn1cc(-c2cnc3[nH]cc(-c4cnn(Cc5cc(F)ccc5F)c4)c3c2)cn1` [Example-10], the half-maximal inhibitory concentration (IC50) was less than 50 nM and the inhibition at 1 µM was 98%.

As for `Cn1cc(-c2cnc3[nH]cc(-c4cnn(Cc5cccc(C(F)(F)F)c5)c4)c3c2)cn1` [Example-11], the IC50 was more than 200 nM and the inhibition at 1 µM was 77%.

As to `Cn1cc(-c2cnc3[nH]cc(-c4cnn(Cc5cccc(Cl)c5)c4)c3c2)cn1` [Example-13], the IC50 was less than 50 nM and the inhibition at 1 µM is 96%.

For `Cn1cc(-c2cnc3[nH]cc(-c4cnn(Cc5cc(F)cc(F)c5)c4)c3c2)cn1` [Example-14], the IC50 was less than 50 nM and the inhibition at 1 µM was found to be 100%.

In the case of `Cn1cc(-c2cnc3[nH]cc(-c4cn(Cc5cccc(F)c5)nc4C(C)(C)C)c3c2)cn1` [Example-15], the inhibition at 0.1 µM was 6% and the inhibition at 1 µM was found to be 6%.

Take `Cn1cc(-c2cnc3[nH]cc(-c4cnn(Cc5cccc([N+](=O)[O-])c5)c4)c3c2)cn1` [Example-16, 5-(1-methyl-1H-pyrazol-4-yl)-3-(1-(3-nitrobenzyl)-1H-pyrazol-4-yl)-1H-pyrrolo[2,3-b]pyridine]: the IC50 was in the range of 50 to 200 nM, the inhibition at 0.1 µM turned out to be 49% and the inhibition at 1 µM was found to be 92%.

Take `Cn1cc(-c2cnc3[nH]cc(-c4cn(Cc5cccc(F)c5)nc4C(F)(F)F)c3c2)cn1` [Example-17]: the IC50 lay within 50 to 200 nM, the inhibition at 0.1 µM was determined as 62% and the inhibition at 1 µM is 89%.

Take `Cc1nn(Cc2cccc(F)c2)c(C)c1-c1c[nH]c2ncc(-c3cnn(C)c3)cc12` [Example-18]: the IC50 is less than 50 nM, the inhibition at 0.1 µM was determined as 79% and the inhibition at 1 µM turned out to be 96%.

Consider `Cc1nn(Cc2cc(F)cc(F)c2)c(C)c1-c1c[nH]c2ncc(-c3cnn(C)c3)cc12` [Example-19], for which the IC50 is less than 50 nM, the inhibition at 0.1 µM was 80% and the inhibition at 1 µM came to 96%.

`Cn1cc(-c2cnc3[nH]cc(-c4cnn(CCc5ccccc5)c4)c3c2)cn1` [Example-20A]: the IC50 is 50 to 200 nM, the inhibition at 0.1 µM was 53% and the inhibition at 1 µM is 92%.

As for `Cn1cc(-c2cnc3[nH]cc(-c4cnn(Cc5cccc(O)c5)c4)c3c2)cn1` [Example-20], the IC50 is less than 50 nM, the inhibition at 0.1 µM is 81% and the inhibition at 1 µM worked out at 99%.

For the compound `Cn1cc(-c2cnc3[nH]cc(-c4cnn(Cc5cccc(N)c5)c4)c3c2)cn1` [Example-21, 3-((4-(5-(1-methyl-1H-pyrazol-4-yl)-1H-pyrrolo[2,3-b]pyridin-3-yl)-1H-pyrazol-1-yl)methyl)aniline], the inhibition at 1 µM turned out to be 90%.

In the case of `Fc1cc(F)cc(Cn2cc(-c3c[nH]c4ncc(-c5cnn(C6CCNCC6)c5)cc34)cn2)c1` [Example-22, 3-(1-(3,5-difluorobenzyl)-1H-pyrazol-4-yl)-5-(1-(piperidin-4-yl)-1H-pyrazol-4yl)-1H-pyrrolo[2,3-b]pyridinehydrochloride], the IC50 is less than 50 nM, the inhibition at 0.1 µM is 97% and the inhibition at 1 µM stood at 100%.

For `Fc1cccc(Cn2cc(-c3c[nH]c4ncc(-c5cnn(C6CCNCC6)c5)cc34)cn2)c1` [Example-23], the IC50 was less than 50 nM, the inhibition at 0.1 µM is 80% and the inhibition at 1 µM came out at 94%.

As for `Cc1nn(Cc2cccc(F)c2)c(C)c1-c1c[nH]c2ncc(-c3cnn(C4CCNCC4)c3)cc12` [Example-24], the IC50 was less than 50 nM, the inhibition at 0.1 µM was determined as 76% and the inhibition at 1 µM stood at 94%.

`Cc1nn(Cc2cccc(O)c2)c(C)c1-c1c[nH]c2ncc(-c3cnn(C4CCNCC4)c3)cc12` [Example-25]: the IC50 was 50 to 200 nM, the inhibition at 0.1 µM worked out at 70% and the inhibition at 1 µM turned out to be 95%.

Turning to `Cc1nn(Cc2cccc(F)c2)cc1-c1c[nH]c2ncc(-c3cnn(C4CCNCC4)c3)cc12` [Example-26], the IC50 was less than 50 nM, the inhibition at 0.1 µM turned out to be 79% and the inhibition at 1 µM stood at 96%.

On to `Cc1c(-c2c[nH]c3ncc(-c4cnn(C5CCNCC5)c4)cc23)cnn1Cc1cccc(F)c1` [Example-27], for which the IC50 is less than 50 nM, the inhibition at 0.1 µM is 79% and the inhibition at 1 µM was 98%.

As for `OCCn1cc(-c2cnc3[nH]cc(-c4cnn(Cc5cccc(F)c5)c4)c3c2)cn1` [Example-28, 2-(4-(3-(1-(3-fluorobenzyl)-1H-pyrazol-4-yl)-1H-pyrrolo[2,3-b]pyridin-5-yl)-1H-pyrazol-1-yl)ethanol], the IC50 was less than 50 nM, the inhibition at 0.1 µM came out at 96% and the inhibition at 1 µM is 98%.

Consider `Cc1nn(Cc2cccc(F)c2)c(C)c1-c1c[nH]c2ncc(-c3cnn(CCO)c3)cc12` [Example-29], for which the IC50 is less than 50 nM, the inhibition at 0.1 µM turned out to be 73% and the inhibition at 1 µM stood at 100%.

Turning to `OCCCn1cc(-c2cnc3[nH]cc(-c4cnn(Cc5cccc(F)c5)c4)c3c2)cn1` [Example-30], the IC50 was less than 50 nM, the inhibition at 0.1 µM came out at 88% and the inhibition at 1 µM came to 99%.

Take `c1ccc(CCn2cc(-c3c[nH]c4ncc(-c5cnn(C6CCNCC6)c5)cc34)cn2)cc1` [Example-31, 3-(1-phenethyl-1H-pyrazol-4-yl)-5-(1-(piperidin-4-yl)-1H-pyrazol-4-yl)-1H-pyrrolo[2,3-b]pyridine]: the IC50 lay within 50 to 200 nM, the inhibition at 0.1 µM amounted to 59% and the inhibition at 1 µM stood at 95%.

For `C[C@H](O)CN1CCC(n2cc(-c3cnc4[nH]cc(-c5cnn(Cc6cccc(F)c6)c5)c4c3)cn2)CC1` [Example-32, (S)-1-(4-(4-(3-(1-(3-fluorobenzyl)-1H-pyrazol-4-yl)-1H-pyrrolo[2,3-b]pyridin-5-yl)-1H-pyrazol-1-yl)piperidin-1-yl)propan-2-ol], the IC50 was less than 50 nM, the inhibition at 0.1 µM is 90% and the inhibition at 1 µM was 99%.
